Results published in patent US20200055041A1, “DEVICE, SYSTEM AND METHODS FOR ELECTROPHYSIOLOGICAL INTERROGATION OF CELLS AND TISSUES” (Nanosurface Biomedical, Inc., priority 2017, published 2020).
Like-named read-outs stand apart in the source and are kept apart here.

Columns and labels:
patterned hPSC-CMs = experiment: Fluorometric cellular ROS / NO / superoxide detection assay in patterned hPSC-CMs; type: cell-based, human; conditions: patterned cells
Procedure: PGC1-α is known to perform a central controlling role in global oxidative metabolism through induction of mitochondrial biogenesis and tuning of the intrinsic metabolic properties of mitochondria_ENREF_35. […] Based on this understanding, a fluorometric cellular ROS detection assay was performed on unpatterned and patterned hPSC-CMs to determine whether upregulation of the PGC1-α protein in patterned cells had any notable impact on oxidative stress. FIGS. 8A-8F show the effect of nanotopography on expression of oxidative stress markers in cultured hPSC-CMs. […] Samples analyzed were patterned cells treated with an NO scavenger (NO−), patterned cells treated with an NO inducer (NO+), untreated unpatterned cells, and untreated patterned cells. […] No difference was observed between flat and patterned samples. […] Samples analyzed were patterned cells treated with an ROS inhibitor (ROS−), patterned cells treated with an ROS inducer (ROS+), untreated unpatterned cells, and untreated patterned cells. […] […] A significant difference was also observed between flat and patterned samples. In all presented data, *p<0.05.

hPSC-CM monolayers [1] = experiment: MEA field potential recording (FPDc, arrhythmia) of hPSC-CM monolayers on flat MEAs and nanoMEAs
From the text: Median difference in beat interval (ΔBI), mean ΔBI, and the standard deviation of the ΔBI were compared in order to provide quantification of baseline arrhythmic properties in line with previously published methods.
The ability to pattern individual wells within a multiwell MEA plate enabled assessment of multiple doses across both surface conditions within a single device, thereby increasing throughput for such comparative studies. Verapamil was first examined as a negative control compound.
FIG. 12A depicts representative traces (averaged across 10 beats) recorded from hPSC-CM monolayers on flat MEAs and subjected to increasing doses of verapamil. FIG. 12B depicts representative traces recorded from hPSC-CM monolayers on nanoMEAs and subjected to increasing doses of verapamil. FIG. 12C depicts normalized dose response curve illustrating the effect for increasing concentrations of verapamil on the field potential durations corrected for beat rate (FPDc) of unpatterned and patterned hPSC-CMs.
[…] depicts representative traces recorded from hPSC-CM monolayers on flat MEAs and subjected to increasing doses of cisapride. […] depicts representative traces recorded from hPSC-CM monolayers on nanoMEAs and subjected to increasing doses of cisapride. FIG. 12F depicts normalized dose response curve illustrating the effect of increasing concentrations of cisapride on the FPDc of unpatterned and patterned hPSC-CMs.
The mechanism by which bepridil prolongs QT is yet to be fully elucidated. However, in addition to regulating Ca^2+ release, it is known that bepridil competes with cTnI for troponin C binding sites, thereby altering Ca^2+ sensitivity in exposed cells. […] FIG. 12G depicts representative traces recorded from hPSC-CM monolayers on flat MEAs and subjected to increasing doses of bepridil. FIG. 12H depicts representative traces recorded from hPSC-CM monolayers on nanoMEAs and subjected to increasing doses of bepridil. FIG. 12I depicts normalized dose response curve illustrating effect of increasing concentrations of bepridil on the FPDc of unpatterned and patterned hPSC-CMs.

hPSC-CM monolayers [2] = experiment: MEA conduction velocity (TCV, LCV) across hPSC-CM monolayers on flat and nanotopographically-patterned MEAs; type: cell-based, human; conditions: for IC50: Homo sapiens, longitudinal conduction velocity, read-out: IC50 from LCV data
From the text: Additionally, interrogation of monolayer culture by MEA facilitates assessment of conduction velocity in a manner that is difficult when using single cell analysis methods, such as patch clamp electrophysiology. For all propagation experiments discussed herein, longitudinal conduction dictates the vertical orientation on the MEA as all nanopatterns were oriented to run vertically during pattern generation. FIG. 6I depicts measurement of conduction velocity (CV) across hPSC-CM monolayers on flat and nanotopographically-patterned MEAs. Conduction was measured specifically in both the transverse (TCV) and longitudinal (LCV) orientations and underlying nanotopography was organized to run longitudinally. In all presented data, *p<0.03, **p<0.003, ***p<0.001. […] Furthermore, longitudinal conduction velocities measured from patterned cells were substantially faster than similar measurements taken from flat controls, as well as global (non-directional) conduction velocity measurements. Specifically, longitudinal conduction velocity measured from patterned cells was recorded as 32.73 cm/s±9.51, whereas flat controls produced longitudinal and global conduction speeds of 10.32 cm/s±2.62 and […], respectively.
In cardiac tissue, it is known to exert a strong conduction blocking effect, inhibiting action potential propagation and in turn affecting synchronous contraction of the tissue.
Dose response curves were calculated from analysis of propagation speeds in both the transverse (TCV) and longitudinal (LCV) directions. The R^2 values for TCV and LCV curve fits were 0.23 and 0.11, respectively. […] The R^2 values for TCV and LCV curve fits were 0.21 and 0.28, respectively.
Furthermore, the inconsistency of the propagation waves on these surfaces led to substantial variability in measured values across experimental repeats, making it difficult to construct well-fitted dose response curves. […] Residual values indicate the vertical distance (in Y units; in this case % change in conduction velocity) of the measured points from the fit line.

3D cardiac tissues = experiment: Field potential duration of 3D cardiac tissues on nanoMEA; type: cell-based; conditions: increasing doses, 3D patterned versus 2D unpatterned and 2D patterned, 21 days culture
Procedure: FIG. 15 depicts engineered cardiac tissue responses to treatment with increasing doses of the hERG channel blocker cisapride on 2D unpatterned, 2D patterned and 3D patterned cell cultures. […] In this experiment, cells are first plated onto a nanoMEA substrate in a 4 μL droplet of medium. 17,500 cells are resuspended in this droplet and allowed to adhere to the substrate for 1 hour. At this point, a further 17,500 cells in 2 μL of medium are plated on top of the existing droplet and allowed to adhere to the first layer of cells. This process is repeated 2 more times to form 4 layers of cells on top of the patterned substrate. Cells on the first layer align in parallel with the underlying substrate and subsequent layers align in parallel with the layer below. Cardiomyocytes are mixed with cardiac fibroblasts at a ratio of 10 cardiomyocytes to 1 fibroblast. An hour after the last plating, the MEA wells are flooded with additional medium to maintain the cells and the constructs are then cultured out to 21 days before being used for drug screening assessment.

[3] = test system: HCM hPSC-CMs (MYH7 R663H variant); experiment: Depolarizing spike slope of HCM patient-derived hPSC-CMs on flat and patterned MEAs; type: cell-based, human; conditions: 1 μM, 30 minutes, patterned HCM cells
From the text: Hypertrophic cardiomyopathy (HCM) manifests as a thickening of the myocardial tissue, typically due to mutations in genes encoding specific sarcomeric proteins.
FIG. 14A depicts an immunostained image of hPSC-CMs obtained from HCM patients and maintained on flat Nafion substrates. FIG. 14B depicts an immunostained image of hPSC-CMs obtained from an unaffected family member related to the examined HCM patient and maintained on flat Nafion substrates. FIG. 14C depicts an immunostained image of hPSC-CMs obtained from HCM patients and maintained on patterned Nafion substrates. FIG. 14D depicts an immunostained image of hPSC-CMs obtained from an unaffected family member related to the examined HCM patient and maintained on patterned Nafion substrates. FIG. 14E depicts quantification of sarcomere length measured from HCM and familial control hPSC-CMs maintained on flat and patterned Nafion substrates. FIG. 14F depicts quantification of z-band width measured from HCM and familial control hPSC-CMs maintained on flat and patterned Nafion substrates. FIG. 14G depicts representative QRS complex traces collected from HCM hPSC-CMs on flat and patterned MEAs. FIG. 14H depicts fold-change in average spike slope (Q-R angle) measured across 30 beats from normal and HCM hPSC-CMs on flat and patterned MEAs. […]

[4] = unpatterned and patterned cells, increasing doses

## N=C(N)NCCC[C@H](N)C(=O)O [L-arginine]
Patterned hPSC-CMs
  pixel intensity, NO detection reagent: significantly higher than all other groups

## CC(=O)N[C@@H](CS)C(=O)O [N-acetyl-L-cysteine]
Patterned hPSC-CMs
  pixel intensity, oxidative stress detection reagent: significantly lower than all other groups examined, with the exception of the patterned samples
  pixel intensity, superoxide detection reagent: significantly lower than all other groups

## Cn1c2cccc(=O)c-2nc2ccccc21 [Pyocyanin]
Patterned hPSC-CMs
  pixel intensity, oxidative stress detection reagent: significantly higher values then all other groups
  pixel intensity, superoxide detection reagent: significantly higher than all other groups

## CC(C)COCC(CN(Cc1ccccc1)c1ccccc1)N1CCCC1 (stereo not shown) [bepridil]
hPSC-CM monolayers [1]
  change in FPDc: not significantly different from baseline
  effect on FPDc: significant prolongation of FPDc
hPSC-CM monolayers [1]; 1 μM, flat cells
  change in FPDc from baseline: 7%
hPSC-CM monolayers [1]; 1 μM, patterned cells
  increase of FPDc from baseline: roughly 20%

## CC1(C)[C@@H](OC(=O)CCC(=O)O)CC[C@]2(C)[C@H]3C(=O)C=C4[C@@H]5C[C@@](C)(C(=O)O)CC[C@]5(C)CC[C@@]4(C)[C@]3(C)CC[C@@H]12 [carbenoxolone]
hPSC-CM monolayers [2]; flat hPSC-CM monolayers
  IC50: 398 nM
hPSC-CM monolayers [2]; nanotopographically-patterned hPSC-CM monolayers
  IC50: 14.7 nM
hPSC-CM monolayers [2]; in vitro, nanoMEA platform
  effect on conduction speeds: significantly reduced conduction speeds

## COc1cc(N)c(Cl)cc1C(=O)NC1CCN(CCCOc2ccc(F)cc2)CC1OC (stereo not shown) [cisapride]
3D cardiac tissues
  field potential duration prolongation, 3D versus 2D cultures: significantly stronger reactions
hPSC-CM monolayers [1]
  effect on FPDc / field potential: significant prolongation of the field potential
hPSC-CM monolayers [1]; 1 μM, cells on both substrates
  FPDc prolongation: ~50%

## COc1ccc(CCN(C)CCCC(C#N)(c2ccc(OC)c(OC)c2)C(C)C)cc1OC (stereo not shown) [verapamil]
[3]
  effect on depolarizing spike slope: improved patterned HCM spike slopes
hPSC-CM monolayers [1]; [4]
  arrhythmogenic effect: no notable arrhythmogenic effect
  effect on FPDc / field potential: significant shortening of FPDc

## c-PTIO
Patterned hPSC-CMs
  pixel intensity, NO detection reagent: significantly lower than all other groups
